Experimental data taken from article PMC11508334, “In Vitro Evaluation of New 5-Nitroindazolin-3-one Derivatives as Promising Agents against Trypanosoma cruzi” (International Journal of Molecular Sciences, 2024).

Assays:
CL-B5 epimastigotes = test system: CL-B5 epimastigotes; parameters: method as in PMID 23124218; conditions: cited from earlier work
RAW 264.7 cells [1] = test: Cytotoxicity MTT assay on RAW 264.7 cells; assay type: cell-based; conditions: Mus musculus, RAW264.7, in vitro cytotoxicity, murine RAW 264.7 macrophages
Description: The compounds under study, dissolved in dimethylsulfoxide (DMSO), were added to the culture media at 10–200 μM. RAW 264.7 cells were cultured in 96-well plates (5 × 10^4 cells per well), and 100 μL of 0.5 mg/mL MTT was added to each well. The DMSO final concentration was less than 0.1% v/v. After incubation for 4 h at 37 °C, the generated water-insoluble formazan dye was dissolved by adding 100 μL of 10% w/v sodium dodecyl sulfate (SDS) in 0.01 M HCl. The plates were further incubated overnight at 37 °C; […] 0.5% of Triton X-100 was added as a positive control. The plates were further incubated overnight at 37 °C, and the optical density of the wells was determined using a microplate reader (Asys Expert Plus©, Asys Hitachi, Vienna, Austria) at 570 nm. Under these conditions, the optical density is directly proportional to the viable cell number in each well. All experiments were performed at least thrice and data were reported as means and their standard deviations from triplicate cultures. Results are reported as IC50 regarding the control (uninfected cells in culture medium)

[2] = test system: T. cruzi epimastigote stage (Dm28c strain); test: Epimastigotes viability study (MTT); assay type: cell-based, Trypanosoma cruzi; conditions: for SI Epimastigote: Selectivity Index IC50 macrophages RAW 264.7/IC50 epimastigotes Dm28c; for IC50: Trypanosoma cruzi, T. cruzi Dm28c epimastigotes, 24 h, MTT
Description: The trypanocidal activity was evaluated against the T. cruzi epimastigote stage (Dm28c strain). It was measured through the MTT assay using 0.22 mg/mL phenazine methosulfate (as an electron carrier). T. cruzi epimastigote from the author's collection (Programa de Farmacología Molecular y Clínica, Facultad de Medicina, Universidad de Chile, Santiago, Chile) were grown at 28 °C in liver infusion tryptase (LIT) medium, as reported earlier, but replacing blood with 4 μM hemin. […] fetal bovine serum (FBS) was added to a final concentration of 10% v/v. In this colorimetric assay for testing the trypanocidal activity, the compounds were dissolved in DMSO. They were added to 3 × 10^6 parasites/mL at 100 μM final concentrations in RPMI 1640 culture medium without phenol red for 24 h at 28 °C. The final concentration of DMSO was less than 0.1% v/v. […] The MTT assay, which was described previously, determined the viability of the epimastigotes.

Dm28c trypomastigotes = test: Trypomastigote viability study (MTT); assay type: cell-based, Trypanosoma cruzi; conditions: for IC50: Trypanosoma cruzi, T. cruzi Dm28c trypomastigotes, 24 h, MTT; for SI Trypomastigote: Selectivity Index IC50 macrophages RAW 264.7/IC50 trypomastigotes Dm28c
Description: Vero cells (ATCC CCL-81) were infected with Dm28c trypomastigotes at a 1:3 (cell: parasite) ratio. T. cruzi trypomastigotes were initially obtained from primary cultures of peritoneal macrophage from chagasic mice. […] Vero cell cultures were then infected with trypomastigotes and incubated at 37 °C in humidified air and 5% CO2 for 5–7 days. After that time, the culture medium was collected and centrifuged at 500× g for 5 min. The trypomastigote-containing pellet was re-suspended in RPMI 1640 supplemented with inactivated FBS and penicillin–streptomycin at a final 1 × 10^7 parasites/mL density. Trypomastigote viability assays were performed using the MTT reduction method as described previously. Then, 1 × 10^7 parasites/mL was incubated in RPMI 1640 with inactivated FBS at 37 °C for 24 h with or without the studied compounds.

[3] = Cyclic voltammetry, reduction of nitro group; assay type: physicochemical; conditions: for −EpaIII: anodic peak potential of couple IIIc/IIIa; for −EpaIII / −EpcIII / −E1/2: given with inverted sign, vs. Ag/AgCl electrode in DMSO; for −EpcIII: cathodic peak potential of couple IIIc/IIIa; for Ipa/Ipc: current ratio RNO2/RNO2•−, couple IIIc/IIIa, DMSO; for −E1/2: half-wave potential of couple IIIc/IIIa
Description: Cyclic Voltammetry (CV) was carried out using a Metrohm Autolab instrument model PGSTAT204, using dimethyl sulfoxide (DMSO) as the solvent (1 mM solutions), tetrabutylammonium perchlorate (0.1 M TBAP) as the supporting electrolyte, a hanging drop mercury electrode (HDME) as the working electrode, Ag/AgCl (3M KCl) as the reference electrode, and a graphite rod as the counter electrode. All measurements were performed after bubbling with nitrogen (N2) for 10 min.
Using Nicholson’s procedure, the Ipa/Ipc values (RNO2/RNO2^•−) were measured from each cyclic voltammogram with a scan rate between 0.1 and 2.5 V/s.

RAW 264.7 cells [4] = test: Plasma membrane permeability (SYTOX Green) of RAW 264.7 cells; assay type: cell-based, murine
[5] = test system: Dm28c trypomastigote of T. cruzi; test: Mitochondrial membrane potential (TMRM incorporation); assay type: cell-based, Trypanosoma cruzi; conditions: trypomastigotes, compound at IC50, 3 h; compared to negative control
Description: Mitochondrial membrane potential (ψm) was determined by the incorporation of the fluorescent probe tetramethylrhodamine methyl ester (TMRM). […] Then, carbonylcyanide-m-chlorophenylhydrazone (CCCP, 10 µM) was added as a control and incubated at 37 °C in humidified air and 5% CO2 for 3 h. Parasites were washed with phosphate-buffered saline (pH 7.4), and suspensions were incubated with TMRM (50 nM) for 15 min. Fluorescence measurements determined the incorporation of the probe at an excitation wavelength of 550 nm and an emission of 590 nm. All the assays were performed in darkness.

[6] = test system: trypomastigotes of T. cruzi; test: Plasmatic membrane permeability assay (SYTOX Green) on trypomastigotes; assay type: cell-based, Trypanosoma cruzi; conditions: compound at IC50, 1 h
Description: Late growth-phase trypomastigotes of T. cruzi (3 × 10^6/well) were washed and incubated in the dark with 1 μM SYTOX Green probe (Molecular Probes) in HANKS′ balanced salts solution (HBSS; Sigma-Aldrich) supplemented with 10 mM D-glucose (HBSS + Glu). The test compound was added at IC50, and fluorescence was measured after 1 h of treatment. The maximum permeabilization was obtained with 0.5% Triton X-100. Fluorescence intensity was determined using Varioskan™ LUX multimode microplate reader (ThermoFisher Scientific, Waltham, MA, USA), with excitation and emission wavelengths of 485 and 520 nm, respectively. The following internal controls were used in the evaluation: (i) the background fluorescence of the compound at the respective wavelengths and (ii) the possible interference of DMSO. Samples were tested in triplicate.

[7] = test system: trypomastigote form of T. cruzi; test: Analysis of ATP levels (CellTiter-Glo); assay type: cell-based, Trypanosoma cruzi; conditions: trypomastigotes; relative to negative control
Description: The CellTiter-Glo® Luminescent Cell Viability Assay (Promega, Fitchburg, WI, USA) was used to detect variations in ATP levels. After incubation, treated parasites were centrifuged (6000 rpm, 10 min, 4 °C) and treated according to the manufacturer’s instructions. Luminescence was determined using the Varioskan™ LUX multi-mode microplate reader (ThermoFisher Scientific). Results were expressed as a percentage relative to the negative control without treatment. Sodium azide (20 mM NaN3 for 3 h) was added as a positive control and benznidazole as a reference treatment. (1) %relative control=luminescence sample/luminescence control∗100

| IC50 [2] [µM] | −EpaIII [3] [V] | −EpcIII [3] [V] | Ipa/Ipc [3] | −E1/2 [3] [V] | melting point [°C] | SMILES | trypanocidal activity against CL-B5 epimastigotes (CL-B5 epimastigotes) | IC50 (RAW 264.7 cells [1]) [µM] | SI Epimastigote [2] | IC50 (Dm28c trypomastigotes) [µM] | effect on plasma membrane permeability (SYTOX Green incorporation) (RAW 264.7 cells [4]) | SI Trypomastigote (Dm28c trypomastigotes) | effect on mitochondrial membrane potential (ψm) [5] | alteration of plasma membrane permeability (SYTOX Green incorporation) [6] | ATP levels [7] |
| --- | --- | --- | --- | --- | --- | --- | --- | --- | --- | --- | --- | --- | --- | --- | --- |
|  |  |  |  |  |  | CCCn1c2ccc([N+](=O)[O-])cc2c(=O)n1Cc1ccccc1 [Compound 2a] | effective against CL-B5 epimastigotes |  |  |  |  |  |  |  |  |
|  |  |  |  |  |  | CC(C)n1c2ccc([N+](=O)[O-])cc2c(=O)n1Cc1ccccc1 [Compound 2b] | effective against CL-B5 epimastigotes |  |  |  |  |  |  |  |  |
| 8.9 ± 1.3 | 0.95 | 1.13 | 0.99 | 1.04 |  | Cn1[nH]c2ccc([N+](=O)[O-])cc2c1=O [Compound 3a] |  | 26.1 ± 0.8 | 2.9 | 18.5 ± 0.9 | significantly affect permeability | 1.4 |  |  |  |
| 28.6 ± 2.1 | 1.03 | 1.13 | 1.00 | 1.08 |  | Cn1c(=O)c2cc([N+](=O)[O-])ccc2n1C [Compound 3b] |  | > 200 |  | 41.8 ± 1.1 |  | >4.8 | statistically significant impact | alter plasma membrane permeability | significantly reduced ATP levels |
| 70.1 ± 2.1 | 0.99 | 1.21 | 0.89 | 1.10 | 128 to 130 | Cn1c2ccc([N+](=O)[O-])cc2c(=O)n1Cc1ccc(Cl)cc1 [Compound 11, 2-(4-Chlorobenzyl)-1-methyl-5-nitro-1,2-dihydro-3H-indazol-3-one] |  | 68.8 ± 1.2 | 1.0 | 67.8 ± 1.7 | significantly affect permeability | 1.0 |  |  |  |
| 79.8 ± 2.3 | 0.99 | 1.13 | 0.97 | 1.06 | 149 to 151 | Cn1c2ccc([N+](=O)[O-])cc2c(=O)n1Cc1cccc(Br)c1 [Compound 13, 2-(3-Bromobenzyl)-1-methyl-5-nitro-1,2-dihydro-3H-indazol-3-one] |  | > 200 | >2.5 | 43.6 ± 1.1 |  | >4.6 | statistically significant impact | alter plasma membrane permeability | significantly reduced ATP levels |
| > 100 | 1.04 | 1.16 | 0.96 | 1.10 | 210 to 212 | COc1ccccc1Cn1c(=O)c2cc([N+](=O)[O-])ccc2n1C [Compound 15, 2-(2-Methoxybenzyl)-1-methyl-5-nitro-1,2-dihydro-3H-indazol-3-one] |  | 36.3 ± 1.1 |  | > 100 | significantly affect permeability |  |  |  |  |
| 6.2 ± 0.9 | 1.26 |  | 0.59 | 1.33 |  | O=c1[nH]n(-c2ccccc2)c2ccc([N+](=O)[O-])cc12 [Compound 22] |  | > 200 | >32.3 | 15.3 ± 1.2 |  | >13.1 | statistically significant impact | alter plasma membrane permeability | significantly reduced ATP levels |

| SMILES | IC50 [2] [µM] | −EpaIII [3] [V] | −EpcIII [3] [V] | Ipa/Ipc [3] | −E1/2 [3] [V] | melting point [°C] | trypanocidal activity against CL-B5 epimastigotes (CL-B5 epimastigotes) | IC50 (RAW 264.7 cells [1]) [µM] | SI Epimastigote [2] | IC50 (Dm28c trypomastigotes) [µM] | effect on plasma membrane permeability (SYTOX Green incorporation) (RAW 264.7 cells [4]) | SI Trypomastigote (Dm28c trypomastigotes) | effect on mitochondrial membrane potential (ψm) [5] | alteration of plasma membrane permeability (SYTOX Green incorporation) [6] | ATP levels [7] |
| --- | --- | --- | --- | --- | --- | --- | --- | --- | --- | --- | --- | --- | --- | --- | --- |
| Cn1c2ccc([N+](=O)[O-])cc2c(=O)n1Cc1ccccc1 [Compound 1] | 10.1 ± 0.6 | 1.02 | 1.12 | 0.94 | 1.07 |  | effective against CL-B5 epimastigotes | 37.8 ± 1.2 | 3.7 | > 100 |  |  |  |  |  |
